According to ChEMBL document CHEMBL4004853, “Design, synthesis and biological evaluation of thienopyrimidine hydroxamic acid based derivatives as structurally novel histone deacetylase (HDAC) inhibitors” (Eur J Med Chem, 2017):

How the values were obtained:
[1] = biological target: T1, Histone deacetylase 1 (Homo sapiens, UniProt Q13547); assay: Inhibition of full length recombinant human GST fused His6-tagged HDAC1 expressed in baculovirus infected High5 cells using Ac-Lys-Tyr-Lys(epsilon-acetyl)-AMC as substrate measured after 24 hrs
[2] = biological target: Histone deacetylase 3 (Homo sapiens, UniProt O15379); assay: Inhibition of full length recombinant human GST fused His6-tagged HDAC3 expressed in baculovirus infected High5 cells using Ac-Lys-Tyr-Lys(epsilon-acetyl)-AMC as substrate measured after 24 hrs
[3] = biological target: T2, Protein deacetylase HDAC6 (Homo sapiens, UniProt Q9UBN7); assay: Inhibition of full length recombinant human GST fused His6-tagged HDAC6 expressed in baculovirus infected High5 cells using Boc-Lys(epsilon-acetyl)-AMC as substrate measured after 3 hrs
T2 sequence (Q9UBN7 whole entry): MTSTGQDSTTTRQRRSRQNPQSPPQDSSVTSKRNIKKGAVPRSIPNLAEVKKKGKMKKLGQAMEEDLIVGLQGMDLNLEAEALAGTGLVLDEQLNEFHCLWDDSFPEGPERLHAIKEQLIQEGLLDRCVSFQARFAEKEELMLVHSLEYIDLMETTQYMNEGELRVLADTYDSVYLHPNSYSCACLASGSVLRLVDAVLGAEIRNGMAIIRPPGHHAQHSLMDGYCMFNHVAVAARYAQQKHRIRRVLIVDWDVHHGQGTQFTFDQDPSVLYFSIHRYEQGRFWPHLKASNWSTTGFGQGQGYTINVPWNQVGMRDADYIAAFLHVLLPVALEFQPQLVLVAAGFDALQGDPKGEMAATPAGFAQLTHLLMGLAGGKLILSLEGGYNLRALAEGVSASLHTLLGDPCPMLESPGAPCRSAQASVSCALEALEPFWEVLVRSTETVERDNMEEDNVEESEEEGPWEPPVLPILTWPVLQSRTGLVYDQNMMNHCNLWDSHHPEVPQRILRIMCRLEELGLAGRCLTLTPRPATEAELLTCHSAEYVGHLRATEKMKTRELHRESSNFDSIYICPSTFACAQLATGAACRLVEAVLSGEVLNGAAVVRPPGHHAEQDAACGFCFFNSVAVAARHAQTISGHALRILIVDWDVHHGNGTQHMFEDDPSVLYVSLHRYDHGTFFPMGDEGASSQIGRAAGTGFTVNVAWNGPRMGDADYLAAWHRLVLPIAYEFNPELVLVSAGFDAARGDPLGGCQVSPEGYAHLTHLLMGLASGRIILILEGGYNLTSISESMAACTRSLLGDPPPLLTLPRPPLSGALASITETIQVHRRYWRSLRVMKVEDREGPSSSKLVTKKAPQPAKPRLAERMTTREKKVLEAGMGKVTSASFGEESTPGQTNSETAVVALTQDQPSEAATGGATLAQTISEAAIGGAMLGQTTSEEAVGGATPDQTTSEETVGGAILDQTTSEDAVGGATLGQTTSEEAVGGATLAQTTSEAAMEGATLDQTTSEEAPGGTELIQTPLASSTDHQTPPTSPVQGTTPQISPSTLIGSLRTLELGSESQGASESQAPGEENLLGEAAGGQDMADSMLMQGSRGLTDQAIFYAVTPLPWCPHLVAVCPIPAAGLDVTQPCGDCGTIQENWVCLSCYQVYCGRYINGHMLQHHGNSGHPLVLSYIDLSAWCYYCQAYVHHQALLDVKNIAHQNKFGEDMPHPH

[4] = test system: RPMI-8226; assay: Antiproliferative activity against human RPMI8226 cells after 72 hrs by CellTiter 96 AQueous Non-Radioactive assay; format: functional, cell-based; settings: RPMI-8226, 72 h
[5] = test system: HCT-116; assay: Antiproliferative activity against human HCT116 cells after 72 hrs by CellTiter 96 AQueous Non-Radioactive assay; format: functional, cell-based; settings: HCT-116, 72 h
[6] = biological target: T1, Histone deacetylase 1; assay: Inhibition of HDAC1 in human RPMI8226 cells assessed as increase in histone H3 acetylation after 24 hrs by western blot analysis; format: cell-based
[7] = biological target: T3, Protein deacetylase HDAC6 (Homo sapiens) (UniProt Q9UBN7); assay: Inhibition of HDAC6 in human RPMI8226 cells assessed as increase in tubulin acetylation after 24 hrs by western blot analysis; format: cell-based
T3 sequence (whole entry): T2 sequence (Q9UBN7 whole entry)

Chain of Histone deacetylase 3 (O15379 whole entry, the tested form may be a part): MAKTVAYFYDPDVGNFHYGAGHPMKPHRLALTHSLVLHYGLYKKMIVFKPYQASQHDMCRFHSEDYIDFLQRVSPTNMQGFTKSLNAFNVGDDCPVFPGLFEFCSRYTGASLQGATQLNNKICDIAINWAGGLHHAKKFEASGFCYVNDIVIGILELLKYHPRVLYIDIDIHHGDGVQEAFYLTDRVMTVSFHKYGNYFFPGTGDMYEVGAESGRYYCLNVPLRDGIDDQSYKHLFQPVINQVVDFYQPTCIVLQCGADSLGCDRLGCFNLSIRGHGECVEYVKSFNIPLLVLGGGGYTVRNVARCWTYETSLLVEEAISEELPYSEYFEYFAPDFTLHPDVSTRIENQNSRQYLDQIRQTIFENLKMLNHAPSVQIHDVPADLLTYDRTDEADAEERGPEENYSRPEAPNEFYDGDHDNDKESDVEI
T1 sequence (Q13547 whole entry, the tested form may be a part): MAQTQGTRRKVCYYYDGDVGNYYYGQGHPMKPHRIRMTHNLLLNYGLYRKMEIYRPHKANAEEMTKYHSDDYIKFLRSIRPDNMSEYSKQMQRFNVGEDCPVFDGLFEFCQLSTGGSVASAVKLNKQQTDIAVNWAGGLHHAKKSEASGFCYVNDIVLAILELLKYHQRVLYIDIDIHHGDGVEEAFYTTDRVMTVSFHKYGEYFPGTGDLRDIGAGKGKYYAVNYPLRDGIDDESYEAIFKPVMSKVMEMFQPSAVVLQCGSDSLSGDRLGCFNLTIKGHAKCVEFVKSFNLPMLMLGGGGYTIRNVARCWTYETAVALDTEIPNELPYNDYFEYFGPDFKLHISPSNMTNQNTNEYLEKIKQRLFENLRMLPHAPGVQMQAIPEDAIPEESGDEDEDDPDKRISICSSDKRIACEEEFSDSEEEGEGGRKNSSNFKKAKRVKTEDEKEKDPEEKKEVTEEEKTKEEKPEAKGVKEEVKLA

| SMILES | IC50 [1] [nM] | IC50 [2] [nM] | IC50 [3] [nM] | IC50 [4] [nM] | IC50 [5] [nM] | inhibition [6] | inhibition [7] |
| --- | --- | --- | --- | --- | --- | --- | --- |
| CCc1cccc(Nc2ncnc3cc(NC(=O)CCCCCCC(=O)NO)sc23)c1 | 116 | 147 | 58.5 | 1570 | 1440 | – | – |
| O=C(CCCCCCC(=O)Nc1cc2ncnc(Nc3cccc(Br)c3)c2s1)NO | 54.5 | 33.8 | 16.9 | 1750 | 1740 | – | – |
| O=C(CCCCCCC(=O)Nc1cc2ncnc(Nc3cccc(F)c3)c2s1)NO | 73.7 | 64.5 | 42.5 | 1630 | 1780 | – | – |
| O=C(CCCCCCC(=O)Nc1cc2ncnc(Nc3cccc(Cl)c3)c2s1)NO | 53.8 | 45.5 | 33.8 | 1520 | 1820 | – | – |

The remaining compounds from weak to strong by IC50 [1], led by results:

| IC50 [1] [nM] | IC50 [2] [nM] | IC50 [3] [nM] | IC50 [4] [nM] | IC50 [5] [nM] | inhibition [6] | inhibition [7] | SMILES |
| --- | --- | --- | --- | --- | --- | --- | --- |
| 138 | 98.8 | 87.6 | 1750 | 2560 | – | – | Cc1ccccc1Nc1ncnc2cc(NC(=O)CCCCCC(=O)NO)sc12 |
| 117 | 144 | 111 | 1980 | 2480 | – | – | COc1ccc(Nc2ncnc3cc(NC(=O)CCCCCCC(=O)NO)sc23)c(C)c1 |
| 62.2 | 21.4 | 20.9 | 1260 | 1330 | Dose-dependent effect | Dose-dependent effect | COc1cccc(Nc2ncnc3cc(NC(=O)CCCCCCC(=O)NO)sc23)c1 |
| 45 | 19.8 | 20.1 | 1580 | 2090 | Dose-dependent effect | Dose-dependent effect | N#Cc1cccc(Nc2ncnc3cc(NC(=O)CCCCCCC(=O)NO)sc23)c1 |
